Reference: PMC10254233, “Synthesis and In Vitro Biological Evaluation of p-Carborane-Based Di-tert-butylphenol Analogs” (Molecules, 2023)

What was measured:
HCT116 cells [1] = assay: Co-treatment with autophagy inhibitors, CV assay; assay type: cell-based, human; details: HCT116, 50 µM with 20 µM chloroquine or 1 mM 3-MA, 72 h
From the text: This means that the cytotoxic activity of the tested drug is enhanced by the inhibition of autophagy.
(G) HCT116 cells were co-treated with R-830-Cb and 3-methyladenine (3-MA) or chloroquine and viability was estimated by crystal violet (CV) assay. * p < 0.05; *** p < 0.001 in comparison to relevant control.
1.1.3. Measurement of reactive oxygen and nitrogen species (ROS/RNS) generation Dihydrorhodamine 123 (DHR) staining was used for detection of production of ROS/RNS species.
Finally, after 72 h incubation, cells were washed, tryp-sinized, and analyzed using flow cytometry (CyFlow® Space Partec using the PartecFloMax® software […]
1.1.4. PI staining on chamber slides […]
(30 µM) and R-830-Cb (50 µM)). […] Finally, for covering the slides fluorescent mounting medium was used and slides were ana-lyzed with Zeiss AxioObserver Z1 inverted fluorescence microscope (Carl Zeiss AG, Oberkochen, Ger-many) at 400 x magnification.
1.1.5. Evaluation of the role of detected autophagy
Concomitant treatment of R-830-Cb and autophagy inhibitors chloroquine and 3-MA was performed to determine the nature of detected autophagy. […] Cell viability was evaluated using CV assay after 72 h. […]
Finally, after 72 h incubation, cells were tripsynized, washed, resuspended in PBS, and analyzed by flow cytometry (CyFlow® Space Partec using the PartecFloMax® software (Munster, Germany)).

[2] = test system: primary peritoneal exudate cells; assay: Viability of primary peritoneal exudate cells, CV assay; assay type: cell-based; details: 72 h, cells from healthy mice
Method: All cells were kept at 37 °C in a humidified atmosphere with 5% CO2.
Primary peritoneal exudates cells (PEC) isolated from C57BL/6 mice were used to estimate the selec-
Mice were obtained from the animal facility at the Institute for Biological Research “Siniša Stanković” - National Institute of the Republic of Serbia, University of Belgrade (Belgrade, Serbia). PEC were cultivated in HEPES-buffered (HEPES = 4-
5% heat-inactivated fetal bovine serum (FBS) and antibiotics under standard growth conditions (37 °C, 5% CO2). For viability determination cells were seeded at a density of 2 x 10^5 cells/well in 96-well plates.
Non-adherent cells were removed two hours after seeding and treatment was applied. Cell viability was determined after 72 h using a crystal violet (CV) assay.
the indicated concentrations for 72 h. Cell viability was determined by the CV test. The data are presented as a mean ± SD from one repre-
sentative out of three independent experiments. *p<0.05 refer to untreated cultures.

human recombinant COX-2 = biological target: T1, human recombinant COX-2 (Homo sapiens, UniProt P35354); assay: COX Fluorescent Inhibitor Screening Assay, COX-2; assay type: biochemical; details: in duplicate
T1 construct: purchased Cayman Chemical Company
T1 sequence (P35354 18-604): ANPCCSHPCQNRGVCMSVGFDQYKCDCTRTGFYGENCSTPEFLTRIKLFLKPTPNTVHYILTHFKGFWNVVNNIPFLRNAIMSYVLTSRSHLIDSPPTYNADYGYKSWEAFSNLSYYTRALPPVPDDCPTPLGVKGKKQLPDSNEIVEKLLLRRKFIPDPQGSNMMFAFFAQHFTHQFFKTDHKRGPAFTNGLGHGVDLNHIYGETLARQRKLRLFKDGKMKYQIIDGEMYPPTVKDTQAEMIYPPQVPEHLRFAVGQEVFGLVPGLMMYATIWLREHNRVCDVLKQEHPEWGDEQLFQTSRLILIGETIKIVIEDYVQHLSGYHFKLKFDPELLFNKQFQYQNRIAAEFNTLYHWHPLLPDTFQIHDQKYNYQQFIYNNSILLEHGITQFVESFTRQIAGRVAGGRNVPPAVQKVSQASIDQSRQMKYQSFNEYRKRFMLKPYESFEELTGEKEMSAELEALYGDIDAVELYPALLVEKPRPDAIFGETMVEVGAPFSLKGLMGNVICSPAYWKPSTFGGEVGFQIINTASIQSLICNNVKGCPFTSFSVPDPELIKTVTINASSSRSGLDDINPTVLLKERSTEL
Method: COX inhibition activity against ovine COX-1 and human COX-2 was determined using the fluorescence-based COX assay COX Fluorescent Inhibitor Screening Assay Kit (Cayman Chemical Company, Ann Arbor, MI, USA) according to the manufacturer’s instructions as previously reported by us. All compounds were screened at a concentration of 100 µM in duplicate.

HCT116 cells [3] = assay: Cell proliferation assay (CFSE staining); assay type: cell-based, human; details: HCT116, IC50 dose, 72 h, compared to R-830
5-LO = biological target: T2, 5-LO (Homo sapiens, UniProt P09917); assay: 5-LO product formation in intact PMNL; details: read-out: IC50 inhibition of 5-LO product formation in intact PMNL; intact PMNL, A23187 + arachidonic acid, mean of at least three experiments
T2 sequence (P09917 1-674): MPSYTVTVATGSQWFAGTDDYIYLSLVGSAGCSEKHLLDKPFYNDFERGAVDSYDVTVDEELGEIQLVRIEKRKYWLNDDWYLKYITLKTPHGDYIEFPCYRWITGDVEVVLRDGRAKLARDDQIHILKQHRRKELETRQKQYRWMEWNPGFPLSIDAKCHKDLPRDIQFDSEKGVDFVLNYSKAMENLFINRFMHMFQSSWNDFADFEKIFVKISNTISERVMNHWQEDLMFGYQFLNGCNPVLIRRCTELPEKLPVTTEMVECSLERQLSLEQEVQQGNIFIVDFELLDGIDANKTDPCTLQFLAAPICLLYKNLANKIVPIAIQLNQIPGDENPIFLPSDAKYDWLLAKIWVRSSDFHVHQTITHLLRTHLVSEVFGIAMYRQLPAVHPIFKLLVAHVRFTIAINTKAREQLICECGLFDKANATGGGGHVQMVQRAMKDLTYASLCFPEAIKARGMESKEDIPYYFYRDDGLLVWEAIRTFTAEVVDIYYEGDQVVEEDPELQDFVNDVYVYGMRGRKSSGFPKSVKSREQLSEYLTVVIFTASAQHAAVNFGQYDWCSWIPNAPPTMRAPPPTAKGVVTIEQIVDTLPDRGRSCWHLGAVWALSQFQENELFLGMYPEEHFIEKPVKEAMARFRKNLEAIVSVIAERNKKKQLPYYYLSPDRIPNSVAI
Method: After 10 min at 37 °C, the reaction was stopped by addition of ice-cold methanol (1 mL). HCl (30 μL, 1 M), prostaglandin B1 (200 ng) and PBS (500 μL) were added and the formed metabolites were extracted and analyzed by HPLC as described previously [96].

[4] = Lipophilicity logD7.4 by HPLC; details: pH 7.4, HPLC method

Row | IC50 (5-LO) [nM] | logD7.4, HPLC [4] | Substance | cell viability on co-treatment with chloroquine or 3-MA (HCT116 cells [1]) | viability of primary peritoneal exudate cells [2] | % Inhibition at 100 µM COX-2 (human recombinant COX-2) | cell division (CFSE) (HCT116 cells [3])
1 | < 30 | 1.88 | (3E)-1-Hydroxy-12-(methylene-[2′-ethylisothiazolidine-1′,1′-dioxide])-1,12-dicarba-closo-dodecaborane(12) [Compound S-2474-Cb] |  |  | n.i. (n.i. = no inhibition (%inhibition below 5%)) | 
2 | 220 | 1.50 | (3E)-1-Hydroxy-12-(methylene-[1′-methoxypyrrolidine-2′-one])-1,12-dicarba-closo-dodecaborane(12) [Compound E-5110-Cb] |  |  | n.i. (n.i. = no inhibition (%inhibition below 5%)) | 
3 | 70 | 1.87 | (3E)-1-Hydroxy-12-(methylene-[dihydrofurane-2′(3H)-one])-1,12-dicarba-closo-dodecaborane(12) [KME-4-Cb] |  |  | n.i. (n.i. = no inhibition (%inhibition below 5%)) | 

Row | Substance | IC50 (5-LO) [nM] | logD7.4, HPLC [4] | cell viability on co-treatment with chloroquine or 3-MA (HCT116 cells [1]) | viability of primary peritoneal exudate cells [2] | % Inhibition at 100 µM COX-2 (human recombinant COX-2) | cell division (CFSE) (HCT116 cells [3])
4 | 1-Hydroxy-12-(thiophen-2′-carbonyl)-1,12-dicarba-closo-dodecaborane(12) [Compound R-830-Cb] | 650 | 2.37 | suppression of the autophagy process caused a drug-induced decrease in cell viability | completely non-toxic in the applied dose range | 6% | more severely affected
